Experimental findings from patent US6365614B1, “Fungicides mixtures” (priority 1997, dated 2002) are described below.

In the test the test system is Plasmopara viticola. Kind of test: Curative action against Plasmopara viticola on potted grapevines. The format is in vivo, Plasmopara viticola on grapevines cv. Müller-Thurgau. The following applies: grapevine leaves, untreated control 73% infection. The method, then:
Curative action against Plasmopara viticola
Leaves of potted grapevines cv. “Müller-Thurgau” were inoculated with an aqueous zoospore suspension of Plasmopara viticola. The grapevines were subsequently kept in a water-vapor-saturated chamber at 22-24° C. for 48 hours. They were then removed from the chambers and, after they had dried, sprayed to run off point with an aqueous preparation of active compound which had been prepared from a stock solution comprising 10% of active compound, 63% of cyclohexanone and 27% of emulsifier. After the spray coating had dried on, the plants were cultivated for another 5 days in the greenhouse at 20-30° C. After this time, the plants were returned into a humid chamber for 16 hours to accelerate the eruption of sporangiophore. The extent to which the disease had developed on the undersides of the leaves was then determined visually in %.
Evaluation is carried out by determining the infected leaf areas in percent. These percentages are converted into efficacies. The expected efficacies of the active compound mixtures are determined using Colby's formula [R. S. Colby, Weeds 15, 20-22 (1967)] and compared with the observed efficacies. Colby's formula: […]
expected efficacy, expressed in % of the untreated control, when using the mixture of the active compounds A, B and C at the concentrations a, b and c x efficacy, expressed in % of the untreated control, when using active compound A at a concentration of a y efficacy, expressed in % of the untreated control, when using active compound B at a concentration of b z efficacy, expressed in % of the untreated control, when using active compound C at a concentration of c The efficacy(E) is calculated as follows using Abbot's formula: […]
α corresponds to the fungal infection of the treated plants in % and β corresponds to the fungal infection of the untreated (control) plants in % An efficacy of 0 means that the infection level of the treated plants corresponds to that of the untreated control plants; an efficacy of 100 means that the treated plants were not infected.

Where [1] appears, read: 1 ppm active compound in the spray liquor.

SMILES strings stand for the structures.

Consider `Cc1cccc(C)c1N(C(=O)CCl)C1CCOC1=O` (stereo not shown) [II.2, Ofurace], for which the “Efficacy in % of the untreated control” value by setting is: under setting [1], 0%; (4 ppm active compound in the spray liquor) 73%; (16 ppm active compound in the spray liquor) 73%.
Consider `COCC(=O)N(c1c(C)cccc1C)C(C)C(=O)OC` (stereo not shown) [II.3, metalaxyl], for which the “Efficacy in % of the untreated control” value under setting [1] stood at 59%.
